Data on one compound can be found in patent US11466006B2, “Dual selective PI3 delta and gamma kinase inhibitors” (Rhizen Pharmaceuticals SA, priority 2013, dated 2022).

For one assay, the target named is Pi3K γ (Homo sapiens, UniProt P48736). Nature of the assay: fMLP induced CD63 expression in basophils from human whole blood. As to conditions: n=10, read-out: IC50 for fMLP (PI3K γ), CD63 positive basophils. In kind it is cell-based. The procedure:
(§1) PI3K δ and γ signalling in basophils manifested by an alteration of anti-FcεR1 or fMLP induced CD63 expression is a useful pharmacodynamic marker determined using the Flow2CAST® kit (Buhlmann Laboratories, Switzerland). Briefly, it involves the following steps: • Mix the anti-coagulated blood sample by inverting the venipuncture tube several times; • Prepare fresh and pyrogen-free 3.5 ml polypropylene or polystyrene tubes suitable for Flow Cytometry measurements; • Add 49 μl of patient's whole blood to each tube; • Add 1 μl of 10% DMSO (background) or compound (10% DMSO) to the assigned tubes and mix gently. Incubate at room temperature for 15 minutes; • Pipet 50 μl of the Stimulation buffer (background) or anti-FcεRI Ab or or fMLP to each tube; • Add 100 μl of Stimulation Buffer to each tube; • Mix gently. Add 20 μl Staining Reagent (1:1 mix of FITC-CD63 and PE-CCR3) to each tube; • Mix gently, cover the tubes and incubate for 15 minutes at 37° C. in a water bath. […]
(§2) Percent CD63 positive cells within the gated basophil population were determined in different treatment groups and normalized to vehicle control.

The target in the next assay is T1, PI3K gamma (Mus musculus, UniProt Q9JHG7).
T1 construct: endogenous in cells; host or cells: RAW 264.7 macrophages
T1 sequence (Q9JHG7 whole entry): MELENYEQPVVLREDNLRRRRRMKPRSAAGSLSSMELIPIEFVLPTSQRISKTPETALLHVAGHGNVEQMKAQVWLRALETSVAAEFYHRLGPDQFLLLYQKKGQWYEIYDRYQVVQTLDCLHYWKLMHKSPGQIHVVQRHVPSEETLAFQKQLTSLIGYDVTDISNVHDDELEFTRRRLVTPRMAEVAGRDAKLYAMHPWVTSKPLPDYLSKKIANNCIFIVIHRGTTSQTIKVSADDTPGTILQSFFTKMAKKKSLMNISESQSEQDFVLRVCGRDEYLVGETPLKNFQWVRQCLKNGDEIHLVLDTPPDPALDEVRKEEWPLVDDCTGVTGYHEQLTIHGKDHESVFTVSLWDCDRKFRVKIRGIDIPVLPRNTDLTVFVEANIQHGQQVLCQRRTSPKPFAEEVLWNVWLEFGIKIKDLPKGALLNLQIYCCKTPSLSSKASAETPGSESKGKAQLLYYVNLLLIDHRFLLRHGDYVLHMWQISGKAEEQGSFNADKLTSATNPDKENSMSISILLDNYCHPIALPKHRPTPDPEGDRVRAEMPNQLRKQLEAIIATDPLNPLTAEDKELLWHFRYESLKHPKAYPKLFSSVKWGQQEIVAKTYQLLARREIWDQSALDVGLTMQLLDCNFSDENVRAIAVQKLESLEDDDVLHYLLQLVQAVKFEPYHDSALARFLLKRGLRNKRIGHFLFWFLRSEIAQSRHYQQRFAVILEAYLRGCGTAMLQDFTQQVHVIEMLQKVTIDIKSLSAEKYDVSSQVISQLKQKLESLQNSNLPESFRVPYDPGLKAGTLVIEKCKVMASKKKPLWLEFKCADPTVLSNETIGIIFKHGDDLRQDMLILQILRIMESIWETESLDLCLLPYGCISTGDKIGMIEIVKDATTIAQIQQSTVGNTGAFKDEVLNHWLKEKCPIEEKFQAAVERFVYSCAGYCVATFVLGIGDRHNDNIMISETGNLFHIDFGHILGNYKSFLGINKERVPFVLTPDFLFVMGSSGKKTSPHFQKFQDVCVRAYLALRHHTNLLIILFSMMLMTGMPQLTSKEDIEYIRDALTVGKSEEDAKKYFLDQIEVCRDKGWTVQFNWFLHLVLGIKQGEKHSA
Nature of the assay: c5a induced AktS473 phosphorylation in RAW 264.7 macrophages (PI3Kγ selectivity). As to conditions: read-out: Cellular IC50 PI3K gamma (c5a induced pAKT in RAW macrophages). Format: cell-based. The procedure:
The objective of this study was to determine the effect of Compound A1 on PI3Kγ kinase mediated c5a induced AktS473 phosphorylation in RAW 264.7 macrophages. • RAW 264.7 cells were treated with desired concentrations of the test compound for 15 min. 1 ml of 2× c5a was added such that the final concentration was 50 ng/ml and incubated for 15 min. • Media was discarded and washed with 1 ml of ice-cold 1× PBS. • 250 μl of cell lysis buffer was added and incubated on ice for 30 min. • Samples were centrifuged and supernatant was stored at −80° C. until analysis • Samples were analyzed by Western Blotting using pAKT (S473) as the primary and anti-rabbit IgG-HRP as a secondary antibody. • Intensity of the bands was determined using ImageJ 1.42q (NIH, USA) and normalized to Actin (loading control). Data was plotted using GraphPad Prism (Version 5.02).

The subject of the next assay is pAKT. Nature of the assay: pAKT inhibition in human primary CTCL cells (flow cytometry). Format: cell-based. As to conditions: cytokine mix stimulated, read-out: EC50, reduction of AKT phosphorylation. The procedure: Flow cytometry analysis of pAKT inhibition: Purified malignant T cells were isolated from donors and cultured overnight in RPMI/1% BSA. Cells were incubated with the test compound for 1.5 hr with a cytokine mix added for the final 30 minutes. The composition of the cytokine mix was 20 ng/ml IL2+5 ng/ml IL7+10 ng/ml IL15+10% FBS. AKT phosphorylation was determined by flow cytometry.

The test system of assay [1] is primary cells derived from B-cell lymphomas. In words: Anticancer activity in patient derived B-lymphoma cells (Annexin V/PI). Format: cell-based. As to conditions: 4 μM, 48-h incubation. The procedure:
Primary cells from lymphoid tumors were exposed to the test compound [Compound A1] to assess the induction of cell death. Cells were derived from diffuse large B-cell lymphoma (DLBCL), mantle cell lymphoma (MCL), splenic marginal zone lymphoma (SMZL), extranodal marginal zone lymphoma (EMZL), or chronic lymphocytic leukemia (CLL, no.=1). Cells were treated with desired concentrations of the compound and apoptosis (Annexin V/PI) was assessed by flow-cytometry after a 48-h incubation period.

A further assay deals with male guinea pigs. Nature of the assay: Ovalbumin induced pulmonary eosinophilia in male guinea pigs. In kind it is in vivo, guinea pig. As to conditions: sensitized guinea pigs, 0.3, 1, 3 mg/kg oral. The procedure:
After the quarantine period, 0.3 mL of blood samples was collected from orbital vein by retro-orbital plexus method from each individual animal and analysed on a cell analyser (ADVIA 2120, Siemens). Based on their total cell count, guinea pigs were randomized and divided into various groups. Ear pinna was marked with an indelible marking pen for identification. On day 0, weights were recorded and animals were sensitized with 50 μg of Ovalbumin (OVA) and 10 mg of alum solution (1 mL) intraperitoneally. On day 7 and day 14, the above sensitization protocol was repeated. […] On day 19, 20, and 21, after the treatment with test compound by oral gavage, 30 mins later animals were exposed to 0.5% w/v, 0.5% and 1% Ovalbumin challenge respectively. Control & sham group animals were treated with 0.5% w/v methyl cellulose (vehicle). Sham control groups were sensitized with 10 mg of alum on day 0, 7 & 14 and exposed to saline solution (SAL) with the same nebulization rate on day 19. 20 and 21. Twenty hours after last OVA challenge, airway hyperresponsiveness was measured by whole body plethysmograph against cumulative doses of methacholine challenge (75, 100, 125 & 150 μg/ml), after measuring the airway response, blood samples and BAL fluid was collected. Samples were analysed for total cell count by using neubuear chamber under microscope and differential leukocyte count was done manually.

In another assay the target is PI3Kδ (Homo sapiens, UniProt O00329). Nature of the assay: Anti-FcεR1 induced CD63 expression in basophils from human whole blood. Format: cell-based. Details: Add 49 μl of patient's whole blood to each tube; endogenous in cells; host or cells: basophils in human whole blood. As to conditions: n=10, read-out: EC50 for FcεR1 (PI3K δ), CD63 positive basophils. The procedure:
as §1, §2

A value given as a limit tells only on which side of the number the result lay.

Chain of PI3Kδ (O00329 whole entry): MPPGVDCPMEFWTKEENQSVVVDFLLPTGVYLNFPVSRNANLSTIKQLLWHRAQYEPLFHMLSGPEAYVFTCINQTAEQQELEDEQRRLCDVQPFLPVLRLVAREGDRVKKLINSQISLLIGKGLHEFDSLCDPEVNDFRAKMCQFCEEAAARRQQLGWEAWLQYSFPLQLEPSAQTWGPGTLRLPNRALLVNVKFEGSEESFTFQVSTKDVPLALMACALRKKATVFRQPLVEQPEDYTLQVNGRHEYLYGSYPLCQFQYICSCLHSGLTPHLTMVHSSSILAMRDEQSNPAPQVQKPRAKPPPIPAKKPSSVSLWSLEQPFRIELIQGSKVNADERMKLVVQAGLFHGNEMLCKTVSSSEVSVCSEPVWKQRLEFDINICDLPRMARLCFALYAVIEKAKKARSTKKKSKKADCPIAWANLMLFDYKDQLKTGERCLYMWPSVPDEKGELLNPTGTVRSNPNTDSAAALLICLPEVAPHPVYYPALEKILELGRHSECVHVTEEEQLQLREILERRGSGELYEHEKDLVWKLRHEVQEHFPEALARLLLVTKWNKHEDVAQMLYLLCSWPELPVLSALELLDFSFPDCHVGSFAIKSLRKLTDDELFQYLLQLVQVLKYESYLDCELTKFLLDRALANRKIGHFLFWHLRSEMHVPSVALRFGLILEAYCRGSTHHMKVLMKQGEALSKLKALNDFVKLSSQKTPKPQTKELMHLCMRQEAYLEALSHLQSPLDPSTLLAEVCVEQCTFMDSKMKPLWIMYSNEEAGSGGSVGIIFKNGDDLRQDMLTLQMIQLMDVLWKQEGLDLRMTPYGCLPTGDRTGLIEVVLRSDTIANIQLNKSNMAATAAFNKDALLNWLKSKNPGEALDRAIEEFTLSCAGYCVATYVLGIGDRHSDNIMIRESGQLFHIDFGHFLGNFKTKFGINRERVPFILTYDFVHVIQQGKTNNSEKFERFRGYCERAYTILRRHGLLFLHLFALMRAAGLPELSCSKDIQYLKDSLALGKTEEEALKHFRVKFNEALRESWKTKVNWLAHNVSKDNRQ
Chain of PI3Kδ (P27986 whole entry partner): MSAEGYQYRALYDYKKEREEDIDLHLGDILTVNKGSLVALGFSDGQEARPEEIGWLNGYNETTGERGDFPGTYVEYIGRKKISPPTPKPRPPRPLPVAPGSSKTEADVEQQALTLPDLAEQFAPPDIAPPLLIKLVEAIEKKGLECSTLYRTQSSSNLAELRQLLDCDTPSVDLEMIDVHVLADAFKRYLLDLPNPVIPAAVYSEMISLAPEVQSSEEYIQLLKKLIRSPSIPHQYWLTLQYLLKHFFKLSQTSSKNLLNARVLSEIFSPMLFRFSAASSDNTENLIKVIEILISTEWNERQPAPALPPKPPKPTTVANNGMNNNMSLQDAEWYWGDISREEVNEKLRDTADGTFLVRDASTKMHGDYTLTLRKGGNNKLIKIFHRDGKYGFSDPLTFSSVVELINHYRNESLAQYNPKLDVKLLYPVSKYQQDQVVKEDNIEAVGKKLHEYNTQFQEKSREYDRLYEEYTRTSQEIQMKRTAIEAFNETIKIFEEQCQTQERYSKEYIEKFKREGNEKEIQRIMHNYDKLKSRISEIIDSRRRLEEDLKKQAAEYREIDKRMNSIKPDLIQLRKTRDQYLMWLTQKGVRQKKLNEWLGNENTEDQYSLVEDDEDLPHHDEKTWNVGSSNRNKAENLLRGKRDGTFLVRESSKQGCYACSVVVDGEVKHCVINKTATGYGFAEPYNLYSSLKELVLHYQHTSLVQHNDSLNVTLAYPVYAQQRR
Chain of Pi3K γ (P48736 whole entry): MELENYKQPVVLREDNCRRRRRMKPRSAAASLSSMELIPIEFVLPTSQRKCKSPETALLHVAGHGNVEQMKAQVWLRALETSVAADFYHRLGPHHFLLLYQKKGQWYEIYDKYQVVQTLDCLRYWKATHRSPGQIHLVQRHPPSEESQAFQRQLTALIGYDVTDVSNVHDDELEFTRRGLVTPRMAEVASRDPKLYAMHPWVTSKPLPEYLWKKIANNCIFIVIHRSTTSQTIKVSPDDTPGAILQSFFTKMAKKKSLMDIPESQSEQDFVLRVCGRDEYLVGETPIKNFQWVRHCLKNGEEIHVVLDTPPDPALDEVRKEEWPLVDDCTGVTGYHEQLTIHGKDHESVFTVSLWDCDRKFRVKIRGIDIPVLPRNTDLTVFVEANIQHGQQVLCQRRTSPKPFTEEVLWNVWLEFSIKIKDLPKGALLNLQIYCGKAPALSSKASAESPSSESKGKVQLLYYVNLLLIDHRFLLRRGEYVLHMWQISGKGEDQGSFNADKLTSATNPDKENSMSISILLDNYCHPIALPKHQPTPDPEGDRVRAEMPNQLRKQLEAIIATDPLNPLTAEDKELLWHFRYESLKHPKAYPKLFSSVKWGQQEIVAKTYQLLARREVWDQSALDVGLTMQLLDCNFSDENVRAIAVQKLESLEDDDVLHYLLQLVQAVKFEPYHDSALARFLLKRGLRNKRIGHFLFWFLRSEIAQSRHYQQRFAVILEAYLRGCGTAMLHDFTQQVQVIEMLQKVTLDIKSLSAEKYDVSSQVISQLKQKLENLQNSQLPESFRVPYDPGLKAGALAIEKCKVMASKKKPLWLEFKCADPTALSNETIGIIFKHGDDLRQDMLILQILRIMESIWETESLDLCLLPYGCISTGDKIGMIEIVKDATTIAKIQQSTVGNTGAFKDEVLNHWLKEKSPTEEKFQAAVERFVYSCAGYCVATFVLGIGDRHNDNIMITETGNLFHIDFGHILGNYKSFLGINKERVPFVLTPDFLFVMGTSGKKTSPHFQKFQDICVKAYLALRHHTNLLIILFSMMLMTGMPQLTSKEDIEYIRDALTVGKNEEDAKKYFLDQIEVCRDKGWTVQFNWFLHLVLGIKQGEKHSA

As to `CC[C@H](Nc1ncnc2[nH]cnc12)c1oc2ccccc2c(=O)c1-c1cccc(F)c1` [Compound A1, (S)-2-(1-(9H-purin-6-ylamino)propyl)-3-(3-fluorophenyl)-4H-chromen-4-one], the figures for the IC50 at Pi3K γ and on PI3K gamma were below 0.04 µM and 0.0223 µM, respectively. The figures for the EC50 with pAKT and at PI3Kδ were 0.04 to 0.3 µM and below 0.04 µM, respectively. Besides, the “cell death (apoptosis, Annexin V/PI)” value in assay [1] is “increase in cell death”. In addition, in the assay on male guinea pigs, the “airway hyperresponsiveness against methacholine challenge” value is listed as “significant dose dependent reduction”. The “eosinophil infiltration into the bronchoalveolar lavage fluid” value in the assay with male guinea pigs is “significant dose dependent reduction”.
